pIC50: −log10 of the molar value.
The molecules below were run against T1, HCMV polymerase (Human cytomegalovirus, UniProt P08546) (assay: HCMV polymerase scintillation proximity assay (SPA), modified version). Details: Antiviral Selective Polymerase IC50 Values, CMV, Table 1, modified assay with 4.5 mM DTT, compounds in 100% DMSO.
T1 construct: made in house; host or cells: recombinant baculovirus-infected SF-9 cells
Assay type: biochemical
Summary of the method: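 Recombinant polymerase (baculovirus/SF-9) in 5.4 mM HEPES pH 7.5, 11.7 mM KCl, 4.5 mM MgCl2, 0.36 mg/ml BSA, 90 nM 3H-dTTP, ±2 mM CHAPS; started with 6 nM biotinylated poly(dA)-oligo(dT), 25° C or 37° C, EDTA-stopped in linear range (30 min for HCMV). Streptavidin-SPA read; IC50 by linear regression. Modified version: 100% DMSO compound dilution, 4.5 mM DTT added.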

T1 sequence (P08546 whole entry): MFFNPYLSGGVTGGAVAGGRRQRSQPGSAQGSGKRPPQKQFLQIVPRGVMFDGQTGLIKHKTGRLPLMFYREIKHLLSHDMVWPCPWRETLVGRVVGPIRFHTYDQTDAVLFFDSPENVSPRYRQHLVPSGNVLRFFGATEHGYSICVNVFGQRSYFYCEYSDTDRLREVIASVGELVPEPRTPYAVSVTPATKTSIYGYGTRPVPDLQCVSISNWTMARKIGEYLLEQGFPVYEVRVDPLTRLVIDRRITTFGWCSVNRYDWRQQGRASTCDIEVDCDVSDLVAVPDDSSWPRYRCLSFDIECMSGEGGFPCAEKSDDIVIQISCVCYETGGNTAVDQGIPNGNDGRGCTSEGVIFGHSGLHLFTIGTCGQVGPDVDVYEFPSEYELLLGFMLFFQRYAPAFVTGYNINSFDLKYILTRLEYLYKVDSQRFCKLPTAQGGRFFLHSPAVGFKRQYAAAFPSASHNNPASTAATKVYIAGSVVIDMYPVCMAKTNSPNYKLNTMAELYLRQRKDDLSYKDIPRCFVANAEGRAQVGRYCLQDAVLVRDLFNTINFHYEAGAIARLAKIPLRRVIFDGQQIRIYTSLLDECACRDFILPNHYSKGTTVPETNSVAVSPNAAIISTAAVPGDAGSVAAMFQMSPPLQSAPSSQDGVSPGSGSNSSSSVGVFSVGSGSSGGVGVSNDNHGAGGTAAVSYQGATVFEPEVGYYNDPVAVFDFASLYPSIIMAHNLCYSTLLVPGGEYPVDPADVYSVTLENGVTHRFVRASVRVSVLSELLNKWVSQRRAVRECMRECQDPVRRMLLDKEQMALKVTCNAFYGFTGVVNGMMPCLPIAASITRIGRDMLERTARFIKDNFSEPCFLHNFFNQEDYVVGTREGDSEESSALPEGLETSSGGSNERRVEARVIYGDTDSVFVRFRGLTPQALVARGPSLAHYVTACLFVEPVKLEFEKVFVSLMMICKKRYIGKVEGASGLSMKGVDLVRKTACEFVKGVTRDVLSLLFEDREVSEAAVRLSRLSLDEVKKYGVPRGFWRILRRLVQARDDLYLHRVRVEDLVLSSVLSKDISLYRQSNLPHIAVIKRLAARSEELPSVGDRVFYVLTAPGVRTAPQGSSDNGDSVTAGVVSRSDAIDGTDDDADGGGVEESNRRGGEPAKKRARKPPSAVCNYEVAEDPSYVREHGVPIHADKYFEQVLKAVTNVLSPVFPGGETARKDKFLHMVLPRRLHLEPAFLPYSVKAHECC

| Structure (SMILES) | pIC50 |
| --- | --- |
| O=C(NCc1ccc(Cl)cc1)c1cnc2c(F)cc(S(=O)(=O)NCCBr)cc2c1O [Example 244, 6-{[(2-bromoethyl)amino]sulfonyl}-N-(4-chlorobenzyl)-8-fluoro-4-hydroxy-3-quinolinecarboxamide] | 4.72 |
| O=C(NCc1ccc(Cl)cc1)c1cnc2c(F)cc(S(=O)(=O)NCCCl)cc2c1O [Example 245, N-(4-chlorobenzyl)-6-{[(2-chloroethyl)amino]sulfonyl}-8-fluoro-4-hydroxy-3-quinolinecarboxamide] | 4.88 |

Same assay, conditions: CMV polymerase; Table 1; modified assay with 4.5 mM DTT, compounds in 100% DMSO; read-out: Antiviral Selective Polymerase IC50 Values, CMV

| pIC50 | Structure (SMILES) |
| --- | --- |
| 4.95 | CC(C)CCNS(=O)(=O)c1cc(F)c2ncc(C(=O)NCc3ccc(Cl)cc3)c(O)c2c1 [Example 233, N-(4-chlorobenzyl)-8-fluoro-4-hydroxy-6-[(isopentylamino)sulfonyl]-3-quinolinecarboxamide] |
| 5.05 | O=C(NCc1ccc(Cl)cc1)c1cnc2c(F)cc(S(=O)(=O)NCCCc3ccccc3)cc2c1O [Example 234, N-(4-chlorobenzyl)-8-fluoro-4-hydroxy-6-{[(3-phenylpropyl)amino]sulfonyl}-3-quinolinecarboxamide] |
| 4.93 | CCCCCNS(=O)(=O)c1cc(F)c2ncc(C(=O)NCc3ccc(Cl)cc3)c(O)c2c1 [Example 235, N-(4-chlorobenzyl)-8-fluoro-4-hydroxy-6-[(pentylamino)sulfonyl]-3-quinolinecarboxamide] |
| 5.18 | O=C(NCc1ccc(Cl)cc1)c1cnc2c(F)cc(S(=O)(=O)NCc3cc(C(F)(F)F)cc(C(F)(F)F)c3)cc2c1O [Example 236, 6-({[3,5-bis(trifluoromethyl)benzyl]amino}sulfonyl)-N-(4-chlorobenzyl)-8-fluoro-4-hydroxy-3-quinolinecarboxamide] |
| 5.16 | O=C(NCc1ccc(Cl)cc1)c1cnc2c(F)cc(S(=O)(=O)NCCC3=CCCCC3)cc2c1O [Example 237, N-(4-chlorobenzyl)-6-({[2-(1-cyclohexen-1-yl)ethyl]amino}-sulfonyl)-8-fluoro-4-hydroxy-3-quinolinecarboxamide] |
| 5.80 | O=C(NCc1ccc(Cl)cc1)c1cnc2c(F)cc(S(=O)(=O)NCCNc3cccc4ccccc34)cc2c1O [Example 238, N-(4-chlorobenzyl)-8-fluoro-4-hydroxy-6-({[2-(1-naphthylamino)ethyl]amino}sulfonyl)-3-quinolinecarboxamide] |
| 4.88 | CNS(=O)(=O)c1cc(F)c2ncc(C(=O)NCc3ccc(Cl)cc3)c(O)c2c1 [Example 239, N-(4-chlorobenzyl)-8-fluoro-4-hydroxy-6-[(methylamino)sulfonyl]-3-quinolinecarboxamide] |
| 4.94 | N#CCNS(=O)(=O)c1cc(F)c2ncc(C(=O)NCc3ccc(Cl)cc3)c(O)c2c1 [Example 240, N-(4-chlorobenzyl)-6-{[(cyanomethyl)amino]sulfonyl}-8-fluoro-4-hydroxy-3-quinolinecarboxamide] |
| 4.80 | COc1ccc(CNS(=O)(=O)c2cc(F)c3ncc(C(=O)NCc4ccc(Cl)cc4)c(O)c3c2)c(OC)c1 [Example 241, N-(4-chlorobenzyl)-6-{[(2,4-dimethoxybenzyl)amino]sulfonyl}-8-fluoro-4-hydroxy-3-quinolinecarboxamide] |
| 5.08 | O=C(NCc1ccc(Cl)cc1)c1cnc2c(F)cc(S(=O)(=O)NCc3cccc(I)c3)cc2c1O [Example 242, N-(4-chlorobenzyl)-8-fluoro-4-hydroxy-6-{[(3-iodobenzyl)amino]sulfonyl}-3-quinolinecarboxamide] |
| 4.81 | O=C(NCc1ccc(Cl)cc1)c1cnc2c(F)cc(S(=O)(=O)NCC(F)(F)F)cc2c1O [Example 243, N-(4-chlorobenzyl)-8-fluoro-4-hydroxy-6-{[(2,2,2-trifluoroethyl)amino]sulfonyl}-3-quinolinecarboxamide] |
| 5.07 | O=C(NCc1ccc(Cl)cc1)c1cnc2c(F)cc(S(=O)(=O)NCCc3ccc(O)c(O)c3)cc2c1O [Example 246, N-(4-chlorobenzyl)-6-{[(3,4-dihydroxyphenethyl)amino]-sulfonyl}-8-fluoro-4-hydroxy-3-quinolinecarboxamide] |
| 4.99 | CCSCCNS(=O)(=O)c1cc(F)c2ncc(C(=O)NCc3ccc(Cl)cc3)c(O)c2c1 [Example 247] |
| 4.94 | O=C(NCc1ccc(Cl)cc1)c1cnc2c(F)cc(S(=O)(=O)NCCCBr)cc2c1O [Example 248, 6-{[(3-bromopropyl)amino]sulfonyl}-N-(4-chlorobenzyl)-8-fluoro-4-hydroxy-3-quinolinecarboxamide] |
| 5.12 | NS(=O)(=O)c1ccc(CNS(=O)(=O)c2cc(F)c3ncc(C(=O)NCc4ccc(Cl)cc4)c(O)c3c2)cc1 [Example 249, 6-({[4-(aminosulfonyl)benzyl]amino}sulfonyl)-N-(4-chlorobenzyl)-8-fluoro-4-hydroxy-3-quinolinecarboxamide] |
| 4.34 | O=C(NCc1ccc(Cl)cc1)c1cnc2c(F)cc(S(=O)(=O)NCCN(CCO)CCO)cc2c1O [Example 250, 6-[({2-[bis(2-hydroxyethyl)amino]ethyl}amino)sulfonyl]-N-(4-chlorobenzyl)-8-fluoro-4-hydroxy-3-quinolinecarboxamide] |

| pIC50 | Structure (SMILES) |
| --- | --- |
| 4.73 | CCSCCNS(=O)(=O)c1cc(F)c2ncc(C(=O)NCc3ccc(Cl)cc3)c(O)c2c1 [Example 251, N-(4-chlorobenzyl)-6-({[2-(ethylsulfanyl)ethyl]amino}sulfonyl)-8-fluoro-4-hydroxy-3-quinolinecarboxamide] |
| 4.72 | Cc1ccc(CNS(=O)(=O)c2cc(F)c3ncc(C(=O)NCc4ccc(Cl)cc4)c(O)c3c2)cc1C [Example 252, N-(4-chlorobenzyl)-6-{[(3,4-dimethylbenzyl)amino]sulfonyl}-8-fluoro-4-hydroxy-3-quinolinecarboxamide] |
| 4.69 | O=C(NCc1ccc(Cl)cc1)c1cnc2c(F)cc(S(=O)(=O)NCC3CC3)cc2c1O [Example 253, N-(4-chlorobenzyl)-6-{[(cyclopropylmethyl)amino]sulfonyl}-8-fluoro-4-hydroxy-3-quinolinecarboxamide] |
| 4.83 | O=C(NCc1ccc(Cl)cc1)c1cnc2c(F)cc(S(=O)(=O)NCc3ccc(Br)cc3)cc2c1O [Example 254, 6-{[(4-bromobenzyl)amino]sulfonyl}-N-(4-chlorobenzyl)-8-fluoro-4-hydroxy-3-quinolinecarboxamide] |
| 4.92 | O=C(NCc1ccc(Cl)cc1)c1cnc2c(F)cc(S(=O)(=O)NCCc3cccs3)cc2c1O [Example 255, N-(4-chlorobenzyl)-8-fluoro-4-hydroxy-6-({[2-(2-thienyl)ethyl]amino}sulfonyl)-3-quinolinecarboxamide] |
| 5.03 | O=C(NCc1ccc(Cl)cc1)c1cnc2c(F)cc(S(=O)(=O)NCCOc3ccccc3)cc2c1O [Example 256, N-(4-chlorobenzyl)-8-fluoro-4-hydroxy-6-{[(2-phenoxyethyl)amino]sulfonyl}-3-quinolinecarboxamide] |
| 4.79 | CC(C)(C)OC(=O)CNS(=O)(=O)c1cc(F)c2ncc(C(=O)NCc3ccc(Cl)cc3)c(O)c2c1 [Example 257, tert-butyl 2-{[(3-{[(4-chlorobenzyl)amino]carbonyl}-8-fluoro-4-hydroxy-6-quinolinyl)sulfonyl]amino}acetate] |
| 4.82 | CC(C)(C)OC(=O)CCNS(=O)(=O)c1cc(F)c2ncc(C(=O)NCc3ccc(Cl)cc3)c(O)c2c1 [Example 258, tert-butyl 3-{[(3-{[(4-chlorobenzyl)amino]carbonyl}-8-fluoro-4-hydroxy-6-quinolinyl)sulfonyl]amino}propanoate] |
| 5.21 | O=C(NCc1ccc(Cl)cc1)c1cnc2c(F)cc(S(=O)(=O)NCc3cccc(OC(F)(F)F)c3)cc2c1O [Example 259, N-(4-chlorobenzyl)-8-fluoro-4-hydroxy-6-({[3-(trifluoro-methoxy)benzyl]amino}sulfonyl)-3-quinolinecarboxamide] |
| 5.24 | O=C(NCc1ccc(Cl)cc1)c1cnc2c(F)cc(S(=O)(=O)NCc3ccccc3Sc3ccccc3CO)cc2c1O [Example 260] |
| 4.82 | O=C(NCc1ccc(Cl)cc1)c1cnc2c(F)cc(S(=O)(=O)NCc3ccc(-c4csnn4)cc3)cc2c1O [Example 261, N-(4-chlorobenzyl)-8-fluoro-4-hydroxy-6-({[4-(1,2,3-thiadiazol-4-yl)benzyl]amino}sulfonyl)-3-quinolinecarboxamide] |
| 5.00 | O=C(NCc1ccc(Cl)cc1)c1cnc2c(F)cc(S(=O)(=O)NCc3ccc(Cl)cc3F)cc2c1O [Example 262, N-(4-chlorobenzyl)-6-{[(4-chloro-2-fluorobenzyl)amino]sulfonyl}-8-fluoro-4-hydroxy-3-quinolinecarboxamide] |
| 4.64 | O=C(NCc1ccc(Cl)cc1)c1cnc2c(F)cc(S(=O)(=O)NCCSCCO)cc2c1O [Example 263, N-(4-chlorobenzyl)-8-fluoro-4-hydroxy-6-[({2-[(2-hydroxyethyl)-sulfanyl]ethyl}amino)sulfonyl]-3-quinolinecarboxamide] |
| 4.04 | CC(C)(N)CNS(=O)(=O)c1cc(F)c2ncc(C(=O)NCc3ccc(Cl)cc3)c(O)c2c1 [Example 264, 6-{[(2-amino-2-methylpropyl)amino]sulfonyl}-N-(4-chlorobenzyl)-8-fluoro-4-hydroxy-3-quinolinecarboxamide] |
| 4.94 | NC(=O)CNS(=O)(=O)c1cc(F)c2ncc(C(=O)NCc3ccc(Cl)cc3)c(O)c2c1 [Example 265, 6-{[(2-amino-2-oxoethyl)amino]sulfonyl}-N-(4-chlorobenzyl)-8-fluoro-4-hydroxy-3-quinolinecarboxamide] |
| 5.00 | Nc1ccc(CNS(=O)(=O)c2cc(F)c3ncc(C(=O)NCc4ccc(Cl)cc4)c(O)c3c2)cc1 [Example 266, 6-{[(4-aminobenzyl)amino]sulfonyl}-N-(4-chlorobenzyl)-8-fluoro-4-hydroxy-3-quinolinecarboxamide] |
